Measured values taken from article PMC6769468, “Endogenous Neuropeptide Nocistatin Is a Direct Agonist of Acid-Sensing Ion Channels (ASIC1, ASIC2 and ASIC3)” (Biomolecules, 2019).
Ends that are not written are not given here.

Legend:
homomeric ASICs = experiment: Whole-cell current, homomeric ASICs in oocytes (all isoforms together); type: cell-based, rat
Procedure: (§1) Oocytes expressed rASIC1a, rASIC1b, rASIC2a, and rASIC3 homomeric channels were prepared as described. Injected oocytes were kept for two–three days at 19 °C and then for up to seven days at 15 °C in ND-96 medium supplemented with gentamycin (50 μg·mL^−1) and containing (in mM): 96 NaCl, 2 KCl, 1.8 CaCl2, 1 MgCl2, and 10 HEPES titrated to pH 7.4 with NaOH. Electrophysiological recordings were performed using the GeneClamp500 amplifier (Axon Instruments, Inverurie, UK) at a holding potential of -50 mV. The data were filtered at 20 Hz and digitized at 100 Hz using the L780 AD converter (L-Card, Moscow, Russia). Microelectrodes were filled with 3 M KCl. The external bath solution was ND-96 with pH adjusted to 7.4/7.8 (10 mM HEPES) /8.5 (10 mM Tris). Nocistatin containing solutions were freshly prepared and buffered each experimental day in ND-96 bath solution (pH 7.4/7.8/8.5). Proton-activated currents through ASIC channels were elicited by application of ND-96, in which 10 mM of HEPES was substituted with 10 mM MES at pH 5.5/ 10 mM acetic acid at pH 4.5. The whole-cell recording was performed if a response to the control pH stimulus was stable in at least two replicates. Nocistatin-activated currents were elicited by application of nocistatin containing solutions with various concentrations of the peptide.
(§2) Extracellular solutions were applied using a computer-controlled valve system with a flow rate of 1 mL/min. The oocyte chamber volume was 80 µL. The validity of the application system for studying ASIC channels expressed in oocytes was confirmed in experiments by application of a Cl-free solution (containing (in mM): 130 NMDG, 1 MgGluc2, 2 KGluc, 5 HEPES) (pH 7.4). Fast application of proton/peptide-activating solution was performed at a flow rate of 1 mL/sec (the change of the bath solution occurred within 100 ms), followed by PC controlled flow stopping (from 5 to 15 s).

rat ASIC1a [1] = target: T1, rat ASIC1a (Rattus norvegicus, UniProt P55926); experiment: Inhibition of pH 5.5-induced ASIC1a current following rNS action; type: cell-based
T1 construct: expressed in transfected cells; host or cells: Xenopus laevis oocytes (injected)
T1 sequence (P55926 1-526): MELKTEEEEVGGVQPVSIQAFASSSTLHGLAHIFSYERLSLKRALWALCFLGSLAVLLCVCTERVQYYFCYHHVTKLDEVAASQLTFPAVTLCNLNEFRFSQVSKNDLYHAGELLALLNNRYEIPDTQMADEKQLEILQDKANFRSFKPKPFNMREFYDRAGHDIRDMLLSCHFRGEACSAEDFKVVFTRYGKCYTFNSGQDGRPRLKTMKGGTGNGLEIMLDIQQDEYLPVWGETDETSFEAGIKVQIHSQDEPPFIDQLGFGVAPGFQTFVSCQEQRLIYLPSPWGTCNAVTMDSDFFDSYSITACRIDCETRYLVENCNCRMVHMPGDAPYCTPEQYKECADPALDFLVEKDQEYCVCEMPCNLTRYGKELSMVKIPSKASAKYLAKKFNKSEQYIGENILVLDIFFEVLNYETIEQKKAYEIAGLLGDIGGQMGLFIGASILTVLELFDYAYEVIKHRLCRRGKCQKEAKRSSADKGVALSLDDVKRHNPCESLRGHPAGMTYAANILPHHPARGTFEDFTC
Procedure: as §1, §2
(c) Generalized logistic differential equation (the four-parameter logistic nonlinear regression model or a Hill function) F3(x) = ((A1 – A2)/(1 + (x/x0)^nH)) + A2, where F3(x) is the response value at a given nocistatin concentration, x is the concentration of nocistatin; A1 is the control response value (fixed at 100%) or the minimum asymptote of the response when concentration = 0; A2 is the response value at maximal inhibition or the maximum asymptote or the stabilized response for an infinite concentration (% of control), x0 is the concentration at which 50% of the channels are expected to show the response (or the response halfway between the minimum response asymptote A1 and the maximum response asymptote A2) (IC50 value) and nH is the Hill coefficient (a level of cooperativity). The maximum amplitude (Imax) was calculated for each oocyte by individual fitting; the data were normalized to it, then the normalized data were averaged and fitted by the logistic equations F1(x) and F2(x).
All data are presented as mean ± SEM. The significance of normalized data differences was determined with a non-parametric Kruskal-Wallis ANOVA test with the significance level * p < 0.05 and ** p < 0.01; ns, non-significant.

rat ASIC1a [2] = target: T1, rat ASIC1a; experiment: ASIC1a steady-state desensitization (SSD) by rNS preconditioning; type: cell-based; details: preconditioning with 0.04 to 0.1 mM rNS, then 1 mM rNS stimulus; n = 4
Procedure: Oocytes expressed rASIC1a, rASIC1b, rASIC2a, and rASIC3 homomeric channels were prepared as described. Injected oocytes were kept for two–three days at 19 °C and then for up to seven days at 15 °C in ND-96 medium supplemented with gentamycin (50 μg·mL^−1) and containing (in mM): 96 NaCl, 2 KCl, 1.8 CaCl2, 1 MgCl2, and 10 HEPES titrated to pH 7.4 with NaOH. Electrophysiological recordings were performed using the GeneClamp500 amplifier (Axon Instruments, Inverurie, UK) at a holding potential of -50 mV. The data were filtered at 20 Hz and digitized at 100 Hz using the L780 AD converter (L-Card, Moscow, Russia). Microelectrodes were filled with 3 M KCl. […]
Figure 2 Effects of nocistatin on rat ASIC1a channels. […] Calculated parameters of EC50 for non-discriminated sites, or EC501 for “cooperative” sites and EC502 for single site, are shown as a result of experimental data mathematical processing. The peak current amplitude is normalized to the maximum amplitude (Imax) calculated for each oocyte by individual fitting. […] Two independent dose-response curves were measured for the 1st (blue line) and the 2nd (green line) peak components of the current. Calculated parameters of IC50 are shown as a result of experimental data mathematical processing by F3(x) logistic equation (see Materials and Methods for detailed description). […]

[3] = amplitude of pH 5.5-induced current, F3, n = 5
[4] = pH 5.5 stimulus after 0.125–0.5 mM nocistatin pretreatment, n = 5

Sequence: MPRVRSVVQARDAEPEADAEPVADEADEVEQKQLQ [rNS]
- Response to a pH drop after washing out the peptide (homomeric ASICs; after washout): completely restored after washing out the peptide
- Response to rapid acidification after activation by the peptide (homomeric ASICs; pH drop after 1 mM rNS): did not respond further to rapid acidification after activation by the peptide
- Effect of application at resting pH 7.4 (homomeric ASICs; resting pH 7.4, 1 mM rNS): causes rapidly activating inward currents in homomeric ASICs
- Reduction of the 1st versus the 2nd component of the current (rat ASIC1a [1]; IC50 comparison): reduced the 1st component of the current twice as effectively
- nH of inhibition, 1st component (rat ASIC1a [1]; [3]): 3.5 ± 0.4
- nH of inhibition, 2nd component (rat ASIC1a [1]; [3]): 1.9 ± 0.2
- nH, integral current inhibition (rat ASIC1a [1]; integral of pH 5.5-induced current after nocistatin, F3): 2.9 ± 0.4
- IC50 (rat ASIC1a [1]; integral of pH 5.5-induced current after nocistatin, F3 (fitted much worse than amplitude)): 150 ± 20 µM
- Concentration at which nocistatin acts as an inhibitor (rat ASIC1a [1]; low concentrations, Figure 2d and S2B): ≤ 0.2 mM
- tmax1, 1st component of proton-induced current (rat ASIC1a [1]; [4]): 0.495 ± 0.085 s
- tmax2, 2nd component of proton-induced current (rat ASIC1a [1]; [4]): 1.415 ± 0.112 s
- Steady-state desensitization (SSD) (rat ASIC1a [2]): does not -induce SSD
